Source: patent US12128035B2, “Activating pyruvate kinase R” (Novo Nordisk Health Care AG, priority 2021, dated 2024)

System: ATP blood levels
Assay: Phase 1 SAD/MAD: blood ATP (LC-MS/MS) in healthy volunteers
Type: in vivo, human
Settings: for Median Percentage Change in ATP Levels / Mean Percentage Change in ATP Levels: HV 400 mg QD
Description: In this study, SAD/MAD cohorts are randomized (3 to 1) to receive Compound 1 or placebo (P). Compound 1 was evaluated first in 4 healthy SAD cohorts and 4 healthy MAD (14-day dosing period) cohorts. Based on the safety, and PK/PD profile from HS, Compound 1 is then evaluated in 1 SCD SAD cohort and 2 SCD MAD cohorts. Specifically, based on the safety and pharmacokinetic/pharmacodynamics (PK/PD) profile in healthy volunteer studies, Compound 1 is evaluated in patients (pts) with SCD, first in a single dose (SD or SAD) cohort and then in multiple-dose (MD or MAD) cohorts (14-day and 12-week). Safety assessments include AEs, vital signs, ECGs and laboratory parameters. PK/PD blood sampling was performed on Day 1 (SAD/MAD) and Day 14 (MAD) and up to 72 h after the last dose and at the end-of-study visit. PD parameters included 2,3-DPG, ATP, and p50 in all cohorts with additional PD studies (including oxygen scan) performed only in the SCD cohorts. PD parameters included 2,3-DPG, ATP, p50, RBC deformability with controlled deoxygenation and reoxygenation (Lorrca® oxygen scan) and varying osmolality (Lorrca® osmoscan)). To maintain study blind, pt identifiers were removed when needed.
In the MAD cohorts, the subjects' blood ATP levels were measured […] by a qualified LC-MS/MS method for the quantitation of ATP in blood. […] Table 20A reports the median percentage change in blood ATP levels, relative to baseline, measured over time after the first dose on days 1 and 14 in healthy volunteers who received daily doses of Compound 1 (100 mg BID, 200 mg BID, 300 mg BID, or 400 mg QD) or placebo for 14 days. Table 20B reports the mean percentage change in ATP blood levels, relative to baseline, measured over time after the first dose on days 1 and 14 in healthy volunteers who received daily doses of Compound 1 (100 mg BID, 200 mg BID, 300 mg BID, or 400 mg QD) for 14 days.
The following procedures are employed for the analysis of ATP and 2,3-DPG in human whole blood K2EDTA using a protein precipitation extraction procedure and analysis by LC-MS/MS.
The following procedures are used for sample extraction prior to analysis via LC-MS/MS. 15.0 μL of the calibration standards, quality controls, matrix blanks, and samples are aliquoted into a 96-well plate. 50.0 μL of the internal standard spiking solution is added to all samples on the plate, with the exception of the matrix blank samples; 50.0 μL of water is added to the matrix blank samples. Subsequently, 150 μL of water is added to all samples on the plate. The plate is then covered and agitated by vortex at high speed for ten minutes, after which 750 μL of methanol is added to all samples on the plate. The plate is covered and agitated by vortex for approximately 1 minute. The plate is then centrifuged at approximately 3500 RPM at approximately 4° C. for five minutes. After centrifugation, a liquid handler is used to transfer 50 μL of each sample to a new 96-well plate, and 200 μL of acetonitrile is added to all samples on the plate. The newly prepared plate is covered and agitated by vortex for approximately 1 minute. The plate is then centrifuged at approximately 3500 RPM at approximately 4° C. for 2 minutes.

[1] = Day 1, 24 h after first daily dose
[2] = Day 14, 0 h after first daily dose
[3] = Day 14, 6 h after first daily dose
[4] = Day 14, 8 h after first daily dose
[5] = Day 14, 12 h after first daily dose
[6] = Day 14, 16 h after first daily dose
[7] = Day 14, 24 h after first daily dose
[8] = Day 14, 48 h after first daily dose
[9] = Day 14, 72 h after first daily dose
[10] = HV single 200 mg, 0 h after dose
[11] = HV single 200 mg, 6 h after dose
[12] = HV single 200 mg, 8 h after dose
[13] = HV single 200 mg, 12 h after dose
[14] = HV single 200 mg, 16 h after dose
[15] = HV single 200 mg, 24 h after dose
[16] = HV single 200 mg, 36 h after dose
[17] = HV single 200 mg, 48 h after dose
[18] = HV single 200 mg, 72 h after dose
[19] = HV single 400 mg, 0 h after dose
[20] = HV single 400 mg, 6 h after dose
[21] = HV single 400 mg, 8 h after dose
[22] = HV single 400 mg, 12 h after dose
[23] = HV single 400 mg, 16 h after dose
[24] = HV single 400 mg, 24 h after dose
[25] = HV single 400 mg, 36 h after dose
[26] = HV single 400 mg, 48 h after dose
[27] = HV single 400 mg, 72 h after dose
[28] = HV single 700 mg, 0 h after dose
[29] = HV single 700 mg, 6 h after dose
[30] = HV single 700 mg, 8 h after dose
[31] = HV single 700 mg, 12 h after dose
[32] = HV single 700 mg, 16 h after dose
[33] = HV single 700 mg, 24 h after dose
[34] = HV single 700 mg, 36 h after dose
[35] = HV single 700 mg, 48 h after dose
[36] = HV single 700 mg, 72 h after dose
[37] = HV single 1000 mg, 0 h after dose
[38] = HV single 1000 mg, 6 h after dose
[39] = HV single 1000 mg, 8 h after dose
[40] = HV single 1000 mg, 12 h after dose
[41] = HV single 1000 mg, 16 h after dose
[42] = HV single 1000 mg, 24 h after dose
[43] = HV single 1000 mg, 36 h after dose
[44] = HV single 1000 mg, 48 h after dose
[45] = HV single 1000 mg, 72 h after dose

O=C([C@H](CO)c1ccccc1)N1CC2=C(C1)CN(S(=O)(=O)c1cnc3c(c1)OCCO3)C2 (single isomer, unassigned) [Compound 1]
Median Percentage Change in ATP Levels (Day 1, 16 h after first daily dose): −1.8%
Mean Percentage Change in ATP Levels [1]: 1.9%
Median Percentage Change in ATP Levels [1]: 0.0%
Mean Percentage Change in ATP Levels [2]: 54%
Median Percentage Change in ATP Levels [2]: 52%
Mean Percentage Change in ATP Levels [3]: 48%
Median Percentage Change in ATP Levels [3]: 52%
Mean Percentage Change in ATP Levels [4]: 51%
Median Percentage Change in ATP Levels [4]: 52%
Mean Percentage Change in ATP Levels [5]: 50%
Median Percentage Change in ATP Levels [5]: 56%
Mean Percentage Change in ATP Levels [6]: 51%
Median Percentage Change in ATP Levels [6]: 51%
Mean Percentage Change in ATP Levels [7]: 57%
Median Percentage Change in ATP Levels [7]: 52%
Mean Percentage Change in ATP Levels [8]: 60%
Median Percentage Change in ATP Levels [8]: 61%
Mean Percentage Change in ATP Levels [9]: 51%
Median Percentage Change in ATP Levels [9]: 54%
Mean Maximum Percent Change from Baseline, ATP (HV MAD, all doses and timepoints (N = 36)): 68.5%
Mean Maximum Percent Change from Baseline, ATP (HV SAD, all doses and timepoints (N = 24)): 24.4%
mean percentage change in ATP blood levels [10]: 0%
median percentage change in ATP blood levels [10]: 0%
mean percentage change in ATP blood levels [11]: 0.7%
median percentage change in ATP blood levels [11]: −4.5%
mean percentage change in ATP blood levels [12]: −2.1%
median percentage change in ATP blood levels [12]: −1.7%
mean percentage change in ATP blood levels [13]: 2.0%
median percentage change in ATP blood levels [13]: 1.7%
mean percentage change in ATP blood levels [14]: −6.9%
median percentage change in ATP blood levels [14]: −6.6%
mean percentage change in ATP blood levels [15]: 3.4%
median percentage change in ATP blood levels [15]: 4.7%
mean percentage change in ATP blood levels [16]: 6.2%
median percentage change in ATP blood levels [16]: 4.1%
mean percentage change in ATP blood levels [17]: 2.0%
median percentage change in ATP blood levels [17]: −2.4%
mean percentage change in ATP blood levels [18]: 12%
median percentage change in ATP blood levels [18]: 11%
mean percentage change in ATP blood levels [19]: 0%
median percentage change in ATP blood levels [19]: 0%
mean percentage change in ATP blood levels [20]: 2.2%
median percentage change in ATP blood levels [20]: 4.1%
mean percentage change in ATP blood levels [21]: −2.5%
median percentage change in ATP blood levels [21]: −8.8%
mean percentage change in ATP blood levels [22]: 5.6%
median percentage change in ATP blood levels [22]: 7.2%
mean percentage change in ATP blood levels [23]: 5.6%
median percentage change in ATP blood levels [23]: 4.5%
mean percentage change in ATP blood levels [24]: 15%
median percentage change in ATP blood levels [24]: 13%
mean percentage change in ATP blood levels [25]: 18%
median percentage change in ATP blood levels [25]: 16%
mean percentage change in ATP blood levels [26]: 14%
median percentage change in ATP blood levels [26]: 14%
mean percentage change in ATP blood levels [27]: 14%
median percentage change in ATP blood levels [27]: 18%
mean percentage change in ATP blood levels [28]: 0%
median percentage change in ATP blood levels [28]: 0%
mean percentage change in ATP blood levels [29]: −2.8%
median percentage change in ATP blood levels [29]: −2.6%
mean percentage change in ATP blood levels [30]: −2.9%
median percentage change in ATP blood levels [30]: −1.6%
mean percentage change in ATP blood levels [31]: −5.5%
median percentage change in ATP blood levels [31]: −5.4%
mean percentage change in ATP blood levels [32]: −1.3%
median percentage change in ATP blood levels [32]: −2.4%
mean percentage change in ATP blood levels [33]: 13%
median percentage change in ATP blood levels [33]: 12%
mean percentage change in ATP blood levels [34]: 4.5%
median percentage change in ATP blood levels [34]: 3.6%
mean percentage change in ATP blood levels [35]: 2.5%
median percentage change in ATP blood levels [35]: 0%
mean percentage change in ATP blood levels [36]: 10%
median percentage change in ATP blood levels [36]: 5.1%
mean percentage change in ATP blood levels [37]: 0%
median percentage change in ATP blood levels [37]: 0%
mean percentage change in ATP blood levels [38]: −1.7%
median percentage change in ATP blood levels [38]: 5.1%
mean percentage change in ATP blood levels [39]: 4.0%
median percentage change in ATP blood levels [39]: 3.1%
mean percentage change in ATP blood levels [40]: 2.9%
median percentage change in ATP blood levels [40]: 7.3%
mean percentage change in ATP blood levels [41]: 6.9%
median percentage change in ATP blood levels [41]: 2.4%
mean percentage change in ATP blood levels [42]: 12%
median percentage change in ATP blood levels [42]: 14%
mean percentage change in ATP blood levels [43]: 13%
median percentage change in ATP blood levels [43]: 16%
mean percentage change in ATP blood levels [44]: 14%
median percentage change in ATP blood levels [44]: 10%
mean percentage change in ATP blood levels [45]: 22%
median percentage change in ATP blood levels [45]: 20%
lag of maximum increase in blood ATP behind maximum plasma concentration (HV single 200, 400, 700 or 1000 mg): at least 24 hours
